According to patent publication US20260250337A1, “HYBRID ANTIMICROBIAL PEPTIDES” (UNIVERSIDADE FEDERAL DO ABC, priority 2023, published 2026):
No end group written: not given here.

Legend:
[1] = tested on: S. epidermidis ATCC 12228; assay: Liquid growth inhibition assay, MIC; format: cell-based; conditions: 37° C., 18 h
[2] = tested on: C. albicans MDM8; assay: Liquid growth inhibition assay, MIC (antifungal); format: cell-based, Candida albicans; conditions: 37° C., 24 h
Method in brief: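 Two-fold peptide dilutions (0.09-50 μmol L^−1) in Peptone Broth (bacteria) or Potato Dextrose Broth (fungi), incubated at 37° C. for 18 h (bacteria) or 24 h (fungi). Growth read by absorbance at 595 nm; three biological repeats.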

[3] = Circular dichroism, helical fraction (Lifson-Roig); format: physicochemical; conditions: peptide 50 μmol L^−1; for Helical fraction (fH) PBS: PBS 10 mmol L^−1, pH 7.4; for Helical fraction (fH) POPC: POPC 10 mmol L^−1; for Helical fraction (fH) POPC:DOPE: POPC:DOPE 3:1, mol:mol; for Helical fraction (fH) POPC:DOPE / Helical fraction (fH) POPC:POPG: 10 mmol L^−1; for Helical fraction (fH) POPC:POPG: POPC:POPG 3:1, mol:mol; for Helical fraction (fH) SDS: SDS 20 mmol L^−1 in water; for Helical fraction (fH) TFE/Water: TFE in water (3:2, v:v)
Description: Method. Circular dichroism (CD) assays were performed with a Spectropolarimeter Jasco Mod. J-815 (JascoCorp). CD spectra were obtained in Far-UV (195-260 nm), and analyzed in the following solutions: water, 2,2,2-trifluoroethanol (TFE) in water (3:2, v:v), phosphate buffer saline (PBS, 10 mmol L^−1, pH 7.4), sodium dodecyl sulfate (SDS 20 mmol L^−1) in water, palmitoyloleoylphosphatidylcholine (POPC; 10 mmol L^−1), palmitoyloleoylphosphatidylcholine:dioleylphosphatidylethanolamine (POPC:DOPE; 3:1, mol:mol, 10 mmol L^−1) and palmitoyloleoylphosphatidylcholine:palmitoyloleoylphosphatidylglycerol (POPC:POPG; 3:1, mol:mol, 10 mmol L^−1) at a peptide concentration of 50 μmol L^−1. These experiments were performed as described in detail by Pedron et al.^62.

[4] = tested on: A. baumannii ATCC19606; assay: DiSC3(5) assay, cytoplasmic membrane depolarization; format: cell-based; conditions: peptides at their MIC
Description: Method. The cytoplasmatic membrane depolarization activity of two of the naturally occurring peptides (VmCT1 and temporin A) and two of the hybrids (VT and TV) was determined at their MIC by performing the membrane potential-sensitive dye DiSC3(5), as reported previously^105, 106. A. baumannii ATCC19606 cells were grown at 37° C. with agitation to an optical density of 600 nm (OD600) of 0.5, centrifuged, washed twice with buffer (5 mmol L^−1 HEPES, 20 mmol L^−1 glucose, pH 7.2), and resuspended to an OD600 of 0.05 in the same buffer but containing 0.1 mol L^−1 KCl. Cells (100 μL) were incubated for 15 minutes with 20 nmol L^−1 of DiSC3(5) until a stable reduction in fluorescence was observed, indicating the incorporation of the DiSC3(5) into the bacterial membrane. After adding the peptides (100 μL solution at 1.2 μmol L^−1), membrane depolarization was determined by the change observed in the fluorescence emission intensity of the dye at λex=622 nm and […].

[5] = tested on: A. baumannii ATCC19606; assay: Skin abscess infection mouse model; format: in vivo, mice; conditions: for anti-infective activity four days after the treatment, reduction of load of A. baumannii cells / anti-infective activity two days post-treatment: skin infection, peptides onto the abscess at their MIC; for anti-infective activity versus parent peptides: skin scarification mouse model
Description: Skin abscess infection mouse model. The anti-infective activity of the peptides VmCT1, temporin A, VT, and TV against A. baumannii ATCC19606 was evaluated as described by Torres et al.^82. Bacteria were grown in tryptic soy broth medium to an optical density of 0.5 at 600 nm. Cells were washed twice with sterile phosphate buffered saline (pH 7.4, 13,000 rpm for 1 min) and resuspended to a final concentration of 1×10^7 CFU/20 μL. To generate the skin infection, female CD-1 mice (6 weeks-old) were first anesthetized with isoflurane and their backs were shaved. A superficial linear abrasion was made with a needle on the shaved area to injure only the stratum corneum and the upper layer of the epidermis. An aliquot of 20 μL suspension containing 1×10^7 CFU of A. baumannii was then inoculated over the wound area with a pipette tip. The next day, the infected area was inoculated with the peptides (VmCT1, temporin A, VT, and TV), which were administered onto the abscess at their MIC. The animals were euthanized, and the scarified skin area removed 2- and 4-days post-infection. The excised area was homogenized using a bead beater for 20 min (25 Hz) and serially diluted for CFU quantification. Two independent experiments were carried out with 3 mice per group in each condition.

[6] = Resistance to degradation in fetal bovine serum; format: in vitro ADME; conditions: for remaining at 0.5 h / remaining peptide, 30 min: 30 min; for remaining at 0.5 h: read-out: remaining peptide, 30 min
Method in brief: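 Peptide added to fetal bovine serum diluted to 25% in water at 37° C; aliquots taken at 0, 0.5, 1, 2, 4 and 6 h. Remaining peptide quantified by LC peak-area integration relative to time 0; three independent replicates.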

[7] = bovine, fetal bovine serum, 25% in water, fetal bovine serum 25% in water, 37° C.
[8] = fetal bovine serum 25% in water, 37° C.

For “FLGAIGNVLKSIL-NH2 [TV, Phe-Leu-Gly-Ala-Ile-Gly-Asn-Val-Leu-Lys-Ser-Ile-Leu]”, the “MIC S. epidermidis ATCC 12228” value [1] was over 50 µM, the “MIC C. albicans MDM8” value [2] was 25 µM and the “Helical fraction (fH) PBS” value [3] was 0.04. The “Helical fraction (fH) POPC” value [3] was 0.12, the “Helical fraction (fH) POPC:DOPE” value [3] was 0.35 and the “Helical fraction (fH) POPC:POPG” value [3] was 0.06. For the same substance, the “Helical fraction (fH) SDS” value [3] was 0.28, the “Helical fraction (fH) TFE/Water” value [3] was 0.50 and the “Helical fraction (fH) Water” value [3] was 0.04. The “cytoplasmic membrane depolarization, DiSC3(5) fluorescence” value [4] was “depolarized the cytoplasmic membrane”, the “anti-infective activity four days after the treatment, reduction of load of A. baumannii cells” value [5] was “two orders of magnitude” and the “anti-infective activity two days post-treatment” value [5] was “increased anti-infective activity when compared to the parent peptides”. For the same substance, the “anti-infective activity versus parent peptides” value [5] was “more potent than that of either parent peptides”.

With “FLGALWNVAKSVF-NH2 [VmCT1, Phe-Leu-Gly-Ala-Len-Trp-Asu-Val-Ala-Lys-Ser-Val-Phe, reference compound]” the “MIC S. epidermidis ATCC 12228” value [1] was 3.1 µM, the “MIC C. albicans MDM8” value [2] was 12.5 µM and the “Helical fraction (fH) PBS” value [3] was 0.03. For the same substance, the “Helical fraction (fH) POPC” value [3] was 0.42, the “Helical fraction (fH) POPC:DOPE” value [3] was 0.55 and the “Helical fraction (fH) POPC:POPG” value [3] was 0.25. For the same substance, the “Helical fraction (fH) SDS” value [3] was 0.17, the “Helical fraction (fH) TFE/Water” value [3] was 0.30 and the “Helical fraction (fH) Water” value [3] was 0.05. The remaining at 0.5 h [6, 7] was about 20%, the remaining at 1 h ([6]; bovine, fetal bovine serum, 25% in water, fetal bovine serum 25% in water, 37° C., 1 h, read-out: remaining peptide, 1 h) was under 10% and the remaining at 2 h ([6]; bovine, fetal bovine serum, 25% in water, fetal bovine serum 25% in water, 37° C., 2 h, read-out: remaining peptide, 2 h) was under 10%. For the same substance, the “remaining peptide, 30 min” value [6, 8] was “approximately 20%” and the “remaining peptide, 1 h” value ([6]; fetal bovine serum 25% in water, 37° C., 1 h) was “less than 10%”.

In the case of “FLPLIGRVLSGIL-NH2 [Temporin A, Phe-Leu-Pro-Leu-Ile-Gly-Arg-Val-Leu-Ser-Gly-Ile-Leu, reference compound]”, the “MIC S. epidermidis ATCC 12228” value [1] is reported as over 50 µM, the “MIC C. albicans MDM8” value [2] is reported as 25 µM and the “Helical fraction (fH) PBS” value [3] is reported as 0.07. For the same substance, the “Helical fraction (fH) POPC” value [3] was 0.31, the “Helical fraction (fH) POPC:DOPE” value [3] was 0.44 and the “Helical fraction (fH) POPC:POPG” value [3] was 0.19. The “Helical fraction (fH) SDS” value [3] was 0.47, the “Helical fraction (fH) TFE/Water” value [3] was 0.65 and the “Helical fraction (fH) Water” value [3] was 0.08.

In the case of “FLPLLWRVASGVF-NH2 [VT, Phe-Leu-Pro-Leu-Leu-Trp-Arg-Val-Ala-Ser-Gly-Val-Phe]”, the “MIC S. epidermidis ATCC 12228” value [1] is reported as over 50 µM, the “MIC C. albicans MDM8” value [2] is reported as 12.5 µM and the “Helical fraction (fH) PBS” value [3] is reported as 0.18. The “Helical fraction (fH) POPC” value [3] was 0.45, the “Helical fraction (fH) POPC:DOPE” value [3] was 0.42 and the “Helical fraction (fH) POPC:POPG” value [3] was 1.00. For the same substance, the “Helical fraction (fH) SDS” value [3] was 0.82, the “Helical fraction (fH) TFE/Water” value [3] was 1.00 and the “Helical fraction (fH) Water” value [3] was 0.21. The “cytoplasmic membrane depolarization, DiSC3(5) fluorescence” value [4] was “depolarized the cytoplasmic membrane”, the “anti-infective activity four days after the treatment, reduction of load of A. baumannii cells” value [5] was “the same effect as the two parent peptides” and the “anti-infective activity two days post-treatment” value [5] was “increased anti-infective activity when compared to the parent peptides”. The “anti-infective activity versus parent peptides” value [5] was “more potent than that of either parent peptides”.

In the case of “ILGAILNVLKSLG-NH2 [PV, Ile-Leu-Gly-Ala-Ile-Leu-Asn-Val-Leu-Lys-Ser-Leu-Gly]”, the “MIC S. epidermidis ATCC 12228” value [1] is reported as over 50 µM, the “MIC C. albicans MDM8” value [2] is reported as 12.5 µM and the “Helical fraction (fH) PBS” value [3] is reported as 0.08. For the same substance, the “Helical fraction (fH) POPC” value [3] was 0.44, the “Helical fraction (fH) POPC:DOPE” value [3] was 0.28 and the “Helical fraction (fH) POPC:POPG” value [3] was 0.63. For the same substance, the “Helical fraction (fH) SDS” value [3] was 0.60, the “Helical fraction (fH) TFE/Water” value [3] was 0.68 and the “Helical fraction (fH) Water” value [3] was 0.13. For the same substance, the remaining at 0.5 h [6, 7] was about 90%, the “time of exposure after which totally degraded” value ([6]; fetal bovine serum) was 1 h and the “remaining peptide, 30 min” value [6, 8] was ~ 90%.
